Test system: HCV (1b) replicon, Huh-ET cells
Experiment: Cell-based luciferase reporter HCV (1b) RNA replication assay
Details: Hepatitis C virus, 96 h; HCV 1b replicon, luciferase, 4 days incubation; read-out: EC50_1b
Excerpt: Cell-Based Luciferase Reporter HCV (Ib) RNA Replication Assay Cell Culture
Replicon cell lines Huh-5.2 are derived from the Huh-7 hepatocarcinoma cell line are maintained in culture as generally described in Krieger, N; Lohmann, V; Bartenschlager, R. Enhancement of hepatitis C virus RNA replication by cell culture-adaptive mutations. J. Virol. 2001, 75, 4614-4624. The Huh-5.2 cells contain the highly cell culture-adapted replicon I389luc-ubi-neo/NS3-375.1 construct that carries, in addition to the neomycin gene, an integrated copy to the firefly luciferase gene (Krieger, N; Lohmann, V; Bartenschlager, R. Enhancement of hepatitis C virus RNA replication by cell culture-adaptive mutations. J. Virol. 2001, 75, 4614-4624). This cell line allows measurement of HCV RNA replication and translation by measuring luciferase activity. It has been previously shown that the luciferase activity tightly follows the replicon RNA level in these cells (Krieger, N; Lohmann, V; Bartenschlager, R. Enhancement of hepatitis C virus RNA replication by cell culture-adaptive mutations. J. Virol. 2001, 75, 4614-4624). The Huh-ET cell line has the same features as those mentioned for Huh-5.2 cell line, except that ET cells are more robust and contain an adaptative mutation in the HCV NS4B gene instead of NS5A. Both cell lines are maintained in cultures at a sub-confluent level (<85%) as the level of replicon RNA is highest in actively proliferating cells. The culture media used for cell passaging consist of DMEM (Gibco BRL Laboratories, Mississauga, ON, Canada) supplemented with 10% foetal bovine serum with 1% penicilin/streptomycin, 1% glutamine, 1% sodium pyruvate, 1% non-essential amino acids, and 180 μg/ml of G418 final concentration. Cells are incubated at 37° C., in an atmosphere of 5% CO2 and passaged twice a week to maintain sub-confluence.
Approximately 3000 viable Huh-ET cells (100 μl) are plated per well in a white opaque 96-well microtiter plate. The cell culture media used for the assay is the same as described above except that it contains no G418 and no phenol red. After an incubation period of 3-4 hours at 37° C. in a 5% CO2 incubator, compounds (100 μl) are added at various concentrations. Cells are then further incubated for 4 days at 37° C. in a 5% CO2 incubator. Thereafter, the culture media is removed and cells are lysed by the addition of 95 μL of the luciferase buffer (luciferin substrate in buffered detergent). Cell lysates are incubated at room temperature and protected from direct light for at least 10 minutes. Plates are read for luciferase counts using a luminometer (Wallac MicroBeta Trilux, Perkin Elmer™, MA, USA).
Curves are fitted to data points using nonlinear regression analysis, and IC50s are interpolated from the resulting curve using GraphPad Prism software, version 2.0 (GraphPad Software Inc., San Diego, Calif., USA).

SMILES | EC50 [nM]
O=C(OCc1ccccc1)N1CCC[C@H]1c1ncc(-c2ccc(C#Cc3ccc4[nH]c([C@@H]5CCCN5C(=O)OCc5ccccc5)nc4c3)cc2)[nH]1 [Compound 2] | 5 to 5000
COC(=O)N[C@H](C(=O)N1C[C@@H](C)C[C@H]1c1nc(-c2ccc(-c3ccc(-c4cc(F)c5[nH]c([C@@H]6C[C@H](C)CN6C(=O)[C@@H](NC(=O)OC)C(C)C)nc5c4)cc3)cc2)c[nH]1)C(C)C [Compound 32] | ≤ 5
COC(=O)N[C@H](C(=O)N1C[C@@H](C)C[C@H]1c1nc(-c2ccc(-c3ccc(-c4cc(C)c5[nH]c([C@@H]6C[C@H](C)CN6C(=O)[C@@H](NC(=O)OC)C(C)C)nc5c4)cc3)cc2)c[nH]1)C(C)C [Compound 28] | ≤ 5
O=C(OCc1ccccc1)N1CCCC1c1ncc(-c2ccc(C#Cc3ccc4[nH]c(C5CCCCN5C(=O)OCc5ccccc5)nc4c3)cc2)[nH]1 (stereo not drawn) [Compound 1] | 5 to 5000
COC(=O)N[C@H](C(=O)N1C[C@@H](C)C[C@H]1c1nc2cc(-c3ccc(-c4ccc(-c5cnc([C@@H]6C[C@H](C)CN6C(=O)[C@H](C(C)C)N(C)C(=O)OC)[nH]5)cc4)cc3)ccc2[nH]1)C(C)C [Compound 8, Methyl ((S)-1-((2S,4S)-2-(4-(4′-(2-((2S,4S)-1-((S)-2-((methoxycarbonyl)amino)-3-methylbutanoyl)-4-methylpyrrolidin-2-yl)-3H-benzo[d]imidazol-6-yl)-[1,1′-biphenyl]-4-yl)-1H-imidazol-2-yl)-4-methylpyrrolidin-1-yl)-3-methyl-1-oxobutan-2-yl)(methyl)carbamate] | ≤ 5
COC(=O)N[C@H](C(=O)N1C[C@@H](C)CC1c1nc2cc(-c3ccc4nc(-c5c[nH]c([C@@H]6C[C@H](C)CN6C(=O)[C@@H](NC(=O)OC)C(C)C)n5)cn4c3)ccc2[nH]1)C(C)C (stereo partly drawn) [Compound 42] | 5 to 5000
COC(=O)N(C)[C@H](C(=O)N1C[C@@H](C)C[C@H]1c1ncc(-c2ccc(-c3ccc(-c4ccc5[nH]c([C@@H]6C[C@H](C)CN6C(=O)[C@H](C(C)C)N(C)C(=O)OC)nc5c4)cc3)cc2)[nH]1)C(C)C [Compound 6, Methyl N-[(1S)-1-[(2S,4S)-2-[4-[4-[4-[2-[(2S,4S)-1-[(2S)-2-[methoxycarbonyl(methyl)amino]-3-methyl-butanoyl]-4-methyl-pyrrolidin-2-yl]-1H-benzimidazol-5-yl]phenyl]phenyl]-1H-imidazol-2-yl]-4-methyl-pyrrolidine-1-carbonyl]-2-methyl-propyl]-N-methyl-carbamate] | ≤ 5
COC(=O)N[C@H](C(=O)N1C[C@@H](C)C[C@H]1c1nc(-c2ccc3cc(-c4ccc5[nH]c([C@@H]6C[C@H](C)CN6C(=O)[C@@H](NC(=O)OC)C(C)C)nc5c4)sc3c2)c[nH]1)C(C)C [Compound 41] | ≤ 5
COC(=O)N[C@H](C(=O)N1C[C@@H](C)C[C@H]1c1nc(-c2ccc3nc(-c4ccc5[nH]c([C@@H]6C[C@H](C)CN6C(=O)[C@@H](NC(=O)OC)C(C)C)nc5c4)ccc3c2)c[nH]1)C(C)C [Compound 34] | ≤ 5
COC(=O)N[C@H](C(=O)N1C[C@@H](C)C[C@H]1c1ncc(-c2ccc(-c3ccc(-c4ccc5[nH]c([C@@H]6C[C@H](C)CN6C(=O)[C@@H](NC(=O)OC)C(C)C)nc5c4)c(C)c3)cc2C)[nH]1)C(C)C [Compound 31] | ≤ 5
COC(=O)N[C@H](C(=O)N1C[C@@H](C)C[C@H]1c1nc(-c2ccc(-c3ccc(-c4ccc5[nH]c([C@@H]6C[C@H](C)CN6C(=O)[C@@H](NC(=O)OC)C(C)C)nc5c4)c4c3OCO4)cc2)c[nH]1)C(C)C [Compound 30] | ≤ 5
COC(=O)N[C@H](C(=O)N1C[C@@H](C)C[C@H]1c1nc(-c2ccc3cc(-c4ccc5[nH]c([C@@H]6C[C@H](C)CN6C(=O)[C@@H](NC(=O)OC)C(C)C)nc5c4)ccc3c2)c[nH]1)C(C)C [Compound 20] | ≤ 5
COC(=O)N[C@H](C(=O)N1C[C@@H](C)C[C@H]1c1nc(-c2ccc(C#Cc3ccc4[nH]c([C@@H]5C[C@H](C)CN5C(=O)[C@@H](NC(=O)OC)C(C)C)nc4c3)cc2)c[nH]1)C(C)C [Compound 9, Methyl N-[(1S)-1-[(2S,4S)-2-[4-[4-[2-[2-[(2S,4S)-1-[(2S)-2-(methoxycarbonylamino)-3-methyl-butanoyl]-4-methyl-pyrrolidin-2-yl]-1H-benzimidazol-5-yl]ethynyl]phenyl]-1H-imidazol-2-yl]-4-methyl-pyrrolidine-1-carbonyl]-2-methyl-propyl]carbamate] | ≤ 5
COC(=O)N[C@H](C(=O)N[C@H](C(=O)N1C[C@@H](C)C[C@H]1c1nc2cc(-c3ccc(-c4ccc(-c5c[nH]c([C@@H]6C[C@H](C)CN6C(=O)[C@@H](NC(=O)OC)C(C)C)n5)cc4)cc3)ccc2[nH]1)C(C)C)C(C)C [Compound 56] | ≤ 5
COC(=O)N[C@H](C(=O)N1C[C@@H](C)C[C@H]1c1ncc(-c2ccc(-c3cc4sc(-c5ccc6nc([C@@H]7C[C@H](C)CN7C(=O)[C@@H](NC(=O)OC)C(C)C)[nH]c6c5)cc4s3)cc2)[nH]1)C(C)C [Compound 25] | ≤ 5
COC(=O)N[C@H](C(=O)N1C[C@@H](C)C[C@H]1c1nc(-c2cc3cc(-c4ccc5[nH]c([C@@H]6C[C@H](C)CN6C(=O)[C@@H](NC(=O)OC)C(C)C)nc5c4)sc3s2)c[nH]1)C(C)C [Compound 43] | ≤ 5
COC(=O)N[C@H](C(=O)N1C[C@@H](C)C[C@H]1c1nc(-c2cc3sc(-c4ccc5[nH]c([C@@H]6C[C@H](C)CN6C(=O)[C@@H](NC(=O)OC)C(C)C)nc5c4)cc3s2)c(C)[nH]1)C(C)C [Compound 19] | ≤ 5
COC(=O)N[C@H](C(=O)N1CCC[C@H]1c1nc(-c2ccc(-c3ccc4[nH]c([C@@H]5CCCN5C(=O)[C@@H](NC(=O)OC)C(C)C)nc4c3)cc2)c[nH]1)C(C)C [Compound 3, Methyl N-[(1S)-1-[(2S)-2-[4-[4-[2-[(2S)-1-[(2S)-2-(methoxycarbonylamino)-3-methyl-butanoyl]pyrrolidin-2-yl]-1H-benzimidazol-5-yl]phenyl]-1H-imidazol-2-yl]pyrrolidine-1-carbonyl]-2-methyl-propyl]carbamate] | ≤ 5

From US8779156B2, “Analogues for the treatment or prevention of flavivirus infections” (Vertex Pharmaceuticals Incorporated, priority 2010, dated 2014)
